How the values were obtained:
symptomatic HCM patients [1] = experiment: Radionuclide ventriculography (diastolic ventricular filling, nTTPF); format: in vivo, human; conditions: perhexiline group, p=0.03 vs placebo response
From the text: (§1) The study was approved by the South Birmingham Research Ethics Committee and the investigation conforms with the principles outlined in the Declaration of Helsinki. All study participants provided written informed consent. The study was a randomized, double blind, placebo-controlled parallel-group design of minimum 3 months duration. FIG. 1 represents a flow chart of the study. The pre-defined primary end point was peak oxygen consumption (peak VO2). Pre-defined secondary end points were symptomatic status, resting myocardial energetics (PCr/γ-ATP ratio) and diastolic function at rest and during exercise (nTTPF). […]
Diastolic filling were assessed by equilibrium R-wave gated blood pool scintigraphy using a standard technique at rest and during graded semi erect exercise on a cycle ergometer (Atherton J J, Moore T D, Lele S S et al. Diastolic ventricular interaction in chronic heart failure. Lancet 1997;349 (9067):1720-1724; Lele S S, Macfarlane D, Morrison S, Thomson H, Khafagi F, Frenneaux M. Determinants of exercise capacity in patients with coronary artery disease and mild to moderate systolic dysfunction. Role of heart rate and diastolic filling abnormalities. Eur Heart J 1996;17(2):204-212). […]
Data were analyzed using SPSS ver. 15.0 for Window and Microsoft Office Excel 2007, and expressed as Mean±Standard Deviation (SD). […]

symptomatic HCM patients [2] = experiment: Cardiopulmonary exercise test (peak oxygen consumption), randomized double-blind placebo-controlled study; format: in vivo, human; conditions: p=0.003 vs placebo
From the text: as §1, with “(nTTPF). 33 controls of similar age and gender distribution were recruited for comparison with baseline data of HCM patients.” for “(nTTPF).”
Following baseline studies, patients were randomized in a double-blind fashion to receive either perhexiline (n=25) or placebo (n=21) 100 mg OD. […] At the end of study, patients were re-evaluated as described earlier.
Data were analyzed using SPSS ver. 15.0 for Window and Microsoft Office Excel 2007, and expressed as Mean±Standard Deviation (SD). Comparison of continuous variables between Perhexiline and Placebo baseline data were determined by unpaired Student's t-test (2-tail) if variables were normally distributed and the Mann-Whitney U-test if the data were non-normally distributed. […]

symptomatic HCM patients [3] = experiment: Side effects and deaths during the study; format: in vivo; conditions: perhexiline group (n=25), during the first week of treatment
From the text: The study was a randomized, double blind, placebo-controlled parallel-group design of minimum 3 months duration. […] The pre-defined primary end point was peak oxygen consumption (peak VO2). Pre-defined secondary end points were symptomatic status, resting myocardial energetics (PCr/γ-ATP ratio) and diastolic function at rest and during exercise (nTTPF).
Diabetic patients were also excluded to maintain the blindness of the study as Perhexiline may lead to a reduction in plasma glucose in such patients necessitating a reduction in anti-diabetic therapy. 46 consecutive consenting patients who met these entry criteria were recruited into the study.
Following baseline studies, patients were randomized in a double-blind fashion to receive either perhexiline (n=25) or placebo (n=21) 100 mg OD. Serum perhexiline levels were obtained at 1 and 4 weeks after initiation of the drug. Dose adjustments were advised by an unblinded physician according to serum level to achieve therapeutic level and to avoid drug toxicity. Identical dosage adjustments were also made for randomly allocated placebo-treated patients by the unblinded observer to ensure that blinding of the investigators was maintained. At the end of study, patients were re-evaluated as described earlier.

Structure (SMILES): C1CCC(C(CC2CCCCN2)C2CCCCC2)CC1 (centres unmarked) [perhexiline, 2-(2,2-dicyclohexylethyl) piperidine]
- εnTTPF (change of nTTPF from rest to exercise) on therapy (symptomatic HCM patients [1]): 0.00 ± 0.003 s
- Effect on peak oxygen consumption (peak VO2, exercise capacity), in words (symptomatic HCM patients [2]; FIG. 3A legend): increases
- Change in Peak VO2 after treatment (increase) (symptomatic HCM patients [2]; HCM patients, perhexiline group, after treatment vs baseline): 2.09 mL/min/kg
- Side effect: dizziness (number of patients) (symptomatic HCM patients [3]): 2
- Side effect: transient nausea (number of patients) (symptomatic HCM patients [3]): 3

Source: US8697728B2, “Perhexiline for use in the treatment of hypertrophic cardiomyopathy (HCM)” (The University of Birmingham, priority 2009, dated 2014)
